Data as given in patent publication US20230142606A1, “PESTICIDALLY ACTIVE FUSED BICYCLIC HETEROAROMATIC AMINO COMPOUNDS” (SYNGENTA CROP PROTECTION AG, priority 2020, published 2023).

Columns and labels:
Assay type in all cases: in vivo
[1] = system: Plutella xylostella (Diamond Back Moth); assay: Example B4: Plutella xylostella (diamond back moth), 24-well artificial diet, eggs; conditions: 192 h, application rate of 200 ppm, pipetting, 8 days after infestation, in comparison to untreated samples, read-out: effect in at least one of the two categories (mortality or growth inhibition)
Protocol: Example B4: Plutella xylostella (Diamond Back Moth)
24-well microtiter plates with artificial diet were treated with aqueous test solutions prepared from 10′000 ppm DMSO stock solutions by pipetting. After drying, Plutella eggs were pipetted through a plastic stencil onto a gel blotting paper and the plate was closed with it. The samples were assessed for mortality and growth inhibition in comparison to untreated samples 8 days after infestation. The following compounds gave an effect of at least 80% in at least one of the two categories (mortality or growth inhibition) at an application rate of 200 ppm: […]

[2] = system: Chilo suppressalis (Striped Rice Stemborer); assay: Example B3: Chilo suppressalis (striped rice stemborer), artificial diet, L2 larvae; conditions: 144 h, application rate of 200 ppm, pipetting, 6 days after infestation, in comparison to untreated samples, read-out: control (at least one of mortality, anti-feedant effect, growth inhibition)
Protocol: Example B3: Chilo suppressalis (Striped Rice Stemborer)
24-well microtiter plates with artificial diet were treated with aqueous test solutions prepared from 10′000 ppm DMSO stock solutions by pipetting. After drying, the plates were infested with L2 larvae (6-8 per well). The samples were assessed for mortality, anti-feeding effect, and growth inhibition in comparison to untreated samples 6 days after infestation. Control of Chilo suppressalis by a test sample is given when at least one of the categories mortality, anti-feedant effect, and growth inhibition is higher than the untreated sample.

[3] = system: Diabrotica Balteata (Corn Root Worm); assay: Example B1: Diabrotica balteata (corn root worm), maize sprouts sprayed, L2 larvae; conditions: 96 h, application rate of 200 ppm, 4 days after infestation, in comparison to untreated samples, read-out: effect in at least one of the two categories (mortality or growth inhibition)
Protocol: Example B1: Diabrotica Balteata (Corn Root Worm)
Maize sprouts placed onto an agar layer in 24-well microtiter plates were treated with aqueous test solutions prepared from 10′000 ppm DMSO stock solutions by spraying. After drying, the plates were infested with L2 larvae (6 to 10 per well). The samples were assessed for mortality and growth inhibition in comparison to untreated samples 4 days after infestation.
The following compounds gave an effect of at least 80% in at least one of the two categories (mortality or growth inhibition) at an application rate of 200 ppm: […]

[4] = system: Spodoptera littoralis (Egyptian Cotton Leaf Worm); assay: Example B5: Spodoptera littoralis (Egyptian cotton leaf worm), cotton leaf discs sprayed, L1 larvae; conditions: foliar, 72 h, application rate of 200 ppm, 3 days after infestation, in comparison to untreated samples, read-out: control (at least one of mortality, anti-feedant effect, growth inhibition)
Protocol: Example B5: Spodoptera littoralis (Egyptian Cotton Leaf Worm)
Cotton leaf discs were placed onto agar in 24-well microtiter plates and sprayed with aqueous test solutions prepared from 10′000 ppm DMSO stock solutions. After drying the leaf discs were infested with five L1 larvae. The samples were assessed for mortality, anti-feeding effect, and growth inhibition in comparison to untreated samples 3 days after infestation. Control of Spodoptera littoralis by a test sample is given when at least one of the categories mortality, anti-feedant effect, and growth inhibition is higher than the untreated sample.

[5] = system: Plutella xylostella (Diamondback Moth); assay: Example B7: Plutella xylostella (diamondback moth), 96-well artificial diet, eggs; conditions: 216 h, application rate of 500 ppm, eggs (~30 per well), 9 days after infestation, read-out: control (samples assessed for mortality)
Protocol: Example B7: Plutella xylostella (Diamondback Moth)
96-well microtiter plates containing artificial diet were treated with aqueous test solutions, prepared from 10′000 ppm DMSO stock solutions, by a liquid handling robot. After drying, eggs (˜30 per well) were infested onto a netted lid which was suspended above the diet. The eggs hatch and L1 larvae move down to the diet. The samples were assessed for mortality 9 days after infestation.

C[C@@H](c1ncnn1-c1ccc(C#N)cn1)N(C)c1nnc2c(C(F)(F)F)cc(C(F)(F)F)cn12 [Compound P1, 6-[5-[(lS)-1-[[6.8-bis(trifluoromethyl)-[1,2,4]triazolo[4,3-a]pyridin-3-yl]-methyl-amino]ethyl]-1,2,4-triazol-1-yl]pyridine-3-carbonitrile]
≥ 80%: percent effect (mortality or growth inhibition) at 200 ppm [1] | percent control (mortality, anti-feedant effect or growth inhibition) at 200 ppm [2] | percent effect (mortality or growth inhibition) at 200 ppm [3]

C[C@H](Nc1nnc2c(C(F)(F)F)cc(C(F)(F)F)cn12)c1ncnn1-c1ccc(C#N)cn1 [Compound P2, 6-[5-[(1S)-1-[[6,8-bis(trifluoromethyl)-[1,2,4]triazolo[4,3-a]pyridin-3-yl]amino]ethyl]-1,2,4-triazol-1-yl]pyridine-3-carbonitrile]
≥ 80%: percent control (mortality, anti-feedant effect or growth inhibition) at 200 ppm [4] | percent effect (mortality or growth inhibition) at 200 ppm [1] | percent control (mortality, anti-feedant effect or growth inhibition) at 200 ppm [2] | percent effect (mortality or growth inhibition) at 200 ppm [3]

CC(Nc1nnc2c(C(F)(F)F)cc(C(F)(F)F)cn12)c1ncnn1-c1ccc(C#N)cn1 (stereo not shown) [Compound P3, 6-[5-[1-[[6,8-bis(trifluoromethyl)-[1,2,4]triazolo[4,3-a]pyridin-3-yl]amino]ethyl]-1,2,4-triazol-1-yl]pyridine-3-carbonitrile]
≥ 80%: percent control (mortality, anti-feedant effect or growth inhibition) at 200 ppm [4] | percent effect (mortality or growth inhibition) at 200 ppm [1] | percent control (mortality, anti-feedant effect or growth inhibition) at 200 ppm [2] | percent effect (mortality or growth inhibition) at 200 ppm [3]

CC(Nc1nnc2c(C(F)(F)F)cc(C(F)(F)F)cn12)c1ncnn1-c1ccc(Br)cn1 (stereo not shown) [Compound P4, N-[1-[2-(5-bromo-2-pyridyl)-1,2,4-triazol-3-yl]ethyl]-6,8-bis(trifluoromethyl)-[1,2,4]triazolo[4,3-a]pyridin-3-amine]
≥ 80%: percent control (mortality, anti-feedant effect or growth inhibition) at 200 ppm [4] | percent effect (mortality or growth inhibition) at 200 ppm [1] | percent control (mortality, anti-feedant effect or growth inhibition) at 200 ppm [2] | percent effect (mortality or growth inhibition) at 200 ppm [3]

CC(Nc1nnc2c(C(F)(F)F)cc(Br)cn12)c1ncnn1-c1ccc(Br)cn1 (stereo not shown) [Compound P5, 6-bromo-N-[1-[2-(5-bromo-2-pyridyl)-1,2,4-triazol-3-yl]ethyl]-8-(trifluoromethyl)-[1,2,4]triazolo[4,3-a]pyridin-3-amine]
≥ 80%: percent effect (mortality or growth inhibition) at 200 ppm [1] | percent control (mortality, anti-feedant effect or growth inhibition) at 200 ppm [2] | percent effect (mortality or growth inhibition) at 200 ppm [3]

CC(Nc1nnc2c(C(F)(F)F)cc(Br)cn12)c1ncnn1-c1ccc(C#N)cn1 (stereo not shown) [Compound P6, 6-[5-[1-[[6-bromo-8-(trifluoromethyl)-[1,2,4]triazolo[4,3-a]pyridin-3-yl]amino]ethyl]-1,2,4-triazol-1-yl]pyridine-3-carbonitrile]
≥ 80%: percent control (mortality, anti-feedant effect or growth inhibition) at 200 ppm [4] | percent effect (mortality or growth inhibition) at 200 ppm [1] | percent control (mortality, anti-feedant effect or growth inhibition) at 200 ppm [2]

CC(Nc1nnc2c(C(F)(F)F)cc(Br)cn12)c1ncnn1-c1ncccn1 (stereo not shown) [Compound P7, 6-bromo-N-[1-(2-pyrimidin-2-yl-1,2,4-triazol-3-yl)ethyl]-8-(trifluoromethyl)-[1,2,4]triazolo[4,3-a]pyndin-3-amine]
≥ 80%: percent control (mortality, anti-feedant effect or growth inhibition) at 200 ppm [2]

CC(Nc1nnc2c(Cl)cc(C(F)(F)F)cn12)c1ncnn1-c1ccc(C#N)cn1 (stereo not shown) [Compound P8, 6-[5-[1-[[8-chloro-6-(trifluoromethyl)-[1,2,4]triazolo[4,3-a]pyridin-3-yl]amino]ethyl]-1,2,4-triazol-1-yl]pyridine-3-carbonitrile]
≥ 80%: percent control (mortality, anti-feedant effect or growth inhibition) at 200 ppm [4] | percent effect (mortality or growth inhibition) at 200 ppm [1] | percent control (mortality, anti-feedant effect or growth inhibition) at 200 ppm [2] | percent effect (mortality or growth inhibition) at 200 ppm [3]

CC(Nc1nnc2c(Cl)cc(C(F)(F)F)cn12)c1ncnn1-c1ncccn1 (stereo not shown) [Compound P9, 8-chloro-N-[1-(2-pyrimidin-2-yl-1,2,4-triazol-3-yl)ethyl]-6-(trifluoromethyl)-[1,2,4]triazolo[4,3-a]pyridin-3-amine]
≥ 80%: mortality at 500 ppm [5] | percent control (mortality, anti-feedant effect or growth inhibition) at 200 ppm [2]
